Laboratory results taken from patent US20060281755A1, “SYNERGISTIC MODULATION OF FLT3 KINASE USING AMINOPYRIMIDINES KINASE MODULATORS” (priority 2005, published 2006).
Like-named read-outs stand apart in the source and are kept apart here.

How the values were obtained:
MV4-11 cells = assay: Annexin V staining (apoptosis) in MV4-11 cells; type: cell-based, human; conditions: combination (fixed ratio 4:1) versus agent alone, 48 hours
Text: The ultimate goal of treatment for FLT3 related disorders is to kill the disease causative cells and to cause regression of disease. […] Annexin V binding to phosphotidyl serine that has translocated from the inner leaflet of the plasma membrane to the outer leaflet of the plasma membrane and is a well established way to measure apoptosis of cells. See van Engeland M., L. J. Nieland, et al. (1998) “Annexin V-affinity assay: a review on an apoptosis detection system based on phosphatidylserine exposure.” Cytometry. 31(1):1-9.
After the compound incubations, treated cells were harvested and stained with Annexin V-PE and 7-AAD using the Guava Nexin apoptosis kit according to the protocol in the Biological Activity Measurements section hereafter. Annexin V staining peaks at 60% because cells late in apoptosis begin to fall apart and are considered debris. […] Statistical analysis using the above described method of Chou and Talalay was also performed to determine the synergy of the combination. […] The magnitude of the synergistic induction of apoptosis of MV4-11 cells by the combination of an FTI and a FLT3 inhibitor could not be predicted by those skilled in the art. […]
Annexin V Staining. […] All annexin positive cells were considered apoptotic and percent Annexin positive cells was calculated.

Baf3-FLT3 cells = assay: 72-hour cell proliferation assay and combination index analysis, Baf3-FLT3; type: cell-based, murine; conditions: with single sub-IC50 dose of FLT3 inhibitor Compound A (100 nM)
Protocol: Dose responses for the individual compounds alone were determined for each cell line using a standard 72-hour cell proliferation assay (see FIGS. 6.1-6.8). […] Each of these chemically distinct compounds alone has potential for the treatment of disorders related to FLT3, such as FLT3 positive AML. […] The FLT3 inhibitors tested had no effect on THP-1 proliferation. […] (See FIGS. 10.1-10.8 and Tables 1-3, hereafter.)
To statistically evaluate the synergy of a FLT3 inhibitor and an FTI in FLT3 dependent cell lines, dosing combinations were evaluated by the method of Chou and Talalay. See Chou T C, Talalay P. (1984) “Quantitative analysis of dose-effect relationships: the combined effects of multiple drugs or enzyme inhibitors.” Adv Enzyme Regul. 22:27-55. Using this method inhibitors are added simultaneously to cells in a ratio of the IC50 dose of each compound alone. […] Using this method, multiple FTI and FLT3 combinations were evaluated. […]
Combination Index Analysis. To determine growth inhibition synergy of a FTI and FLT3 inhibitor combination based on the method of Chou and Talalay (Chou and Talalay. See Chou T C, Talalay P. (1984) “Quantitative analysis of dose-effect relationships: the combined effects of multiple drugs or enzyme inhibitors.” Adv Enzyme Regul. 22:27-55.), fixed ratio combination dosing with isobolar statistical analysis was performed. […]

[1] = either agent alone or in combination
Protocol: Mice were dosed orally by gavage with vehicle (control group) or compound at various doses twice-daily (b.i.d.) during the week and once-daily (q.d.) on weekends. Dosing was continued for 11 consecutive days, depending on the kinetics of tumor growth and size of tumors in vehicle-treated control mice. If tumors in the control mice reached 10% of body weight (˜2.0 grams), the study was to be terminated. […] During the study, tumor growth was measured three times-a-week (M, W, F) using electronic Vernier calipers. Tumor volume (mm^3) was calculated using the formula […], where L=length (mm) and W=width (shortest distance in mm) of the tumor. […] Mice were closely examined daily at each dose for overt clinical signs of adverse, drug-related side effects. […]
If tumors in the control mice reached ˜10% of body weight (˜2.0 grams), the study was to be terminated. […] During the study, tumor growth was measured three times-a-week (M, W, F) using electronic Vernier calipers. […] Body weight was measured three times-a-week and a loss of body weight >10% was used as an indication of lack of compound tolerability. […]
Dosing was continued for sixteen consecutive days. Tumor growth was measured three times-a-week (Monday, Wednesday, Friday) using electronic Vernier calipers. Body weight was measured three times-a-week and a loss of body weight >10% was used as an indication of lack of compound tolerability.

Cn1cncc1C(N)(c1ccc(Cl)cc1)c1ccc2c(c1)c(-c1cccc(Cl)c1)cc(=O)n2C (single isomer, unassigned; (+)) [Tipifarnib, (+)-6-[amino(4-chlorophenyl)(1-methyl-1H-imidazol-5-yl)methyl]-4-(3-chlorophenyl)-1-methyl-2(1H)-quinolinone]
shift of EC50 for the induction of annexin V staining (MV4-11 cells): more than eight-fold
increase in potency of Tipifarnib (Baf3-FLT3 cells): more than 3 fold
overt toxicity ([1]; 9-day treatment): No overt toxicity
overt toxicity ([1]; 16-day treatment): No overt toxicity
